Data published in patent EP2208498B1, “PHARMACEUTICAL COMPOSITION COMBINING VARIOUS VENOTONIC AND VASOPROTECTIVE AGENTS FOR THE TREATMENT OF CHRONIC VENOUS INSUFFICIENCY” (priority 2007, dated 2009).

Key:
[1] = cited from earlier work
[2] = tested on: patients with chronic venous insufficiency
Protocol: A randomized, comparative clinical study was carried out wherein 150 patients with chronic venous insufficiency were included.
All patients were firstly treated with conventional therapy, combining compression with pharmacological treatment.
A full clinical history with physical examination was prepared for the patients, being assessed with Echo Doppler and CEAP classification, see Table 1.

haemorrhoidal crises = conditions: 25 patients 1 500 mg per day calcium dobesilate; 26 patients 3000 mg per day flavonoid fraction of diosmine; cited from earlier work
[3] = Final symptomatology data after two months of treatment, n=50 per group, initial 100%

In the case of O=S(=O)(O)c1cc(O)ccc1O [calcium dobesilate, Calcium dobesilate], the plasma peak ([1]; after oral administration) is listed as 8 µg/mL, the “time of plasma peak” value ([1]; after oral administration) is listed as “around 6 hours” and the Plasma half-life ([1]; in vivo) is listed as “about 5 hours”. The “administered dose removed in feces” value ([1]; remaining dose) was 50%, the “administered dose removed in urine” value ([1]; within the first 24 hours) was 50% and the Itch ([2]; Final symptomatology data after two months of treatment, n=50 per group, initial 80-88%) was 0. It also gave a Cramps [2, 3] of 0, a Heaviness [2, 3] of 0 and a Limb pain [2, 3] of 0. For the same compound, the Doppler ([2]; Final symptomatology data after two months of treatment, n=50 per group, initial >9) was under 9, the “reported side effects such as: head ache and tiredness sensation” value ([2]; human, in vivo) was 14 patients and the “improvement in haemorrhoidal crises (in words)” value (haemorrhoidal crises) was “significant improvement”.
